One assay concerns MRC-5. The experiment in a line: XTT antiproliferative assay, normal lung cells MRC-5. It counts as cell-based. Conditions: Homo sapiens, MRC5, 72 h, mean ± SD. The method, then:
All the synthesized 4-anilinoquinolinylchalcone derivatives were evaluated in vitro against two cancer cells (Huh-7 and MDA-MB-231) and a non-cancer normal fibroblast lung cell line (MRC-5) using an XTT (sodium 3′-[1-(phenylamino-carbonyl)-3,4-tetrazolium}-bis(4-methoxy-6-nitro)benzene sulfonic acid hydrate) assay. The concentration that inhibited the growth of 50% of cells (IC50) was determined from the linear portion of the curve by calculating the concentration of the tested agent that reduced absorbance in treated cells, compared to control cells, by 50%. The IC50 results of these 4-anilinoquinolinylchalcone derivatives are summarized (Table 1). […] Thus, 4a was selected as a lead compound for further mechanism studies.
Cancer cells (Huh-7, MDA-MB-231) and normal lung cells (MRC-5) were purchased from Bioresources Collection and Research Center, Taiwan. Cells were maintained in the same standard medium, grown as a monolayer in DMEM (Gibco, Miami, FL, USA), and supplemented with 10% fetal bovine serum (FBS) and antibiotics, i.e., 100 IU/mL penicillin, 0.1 mg/mL streptomycin and 0.25 μg/mL amphotericin. The culture was maintained at 37 °C with 5% CO2 in a humidified atmosphere. Cells (5 × 10^3 cells/well) were treated with tested compounds for 72 h in the medium containing 10% FBS. Cell viability was quantitated with the use of sodium 3′-[1-(phenylamino-carbonyl)-3,4-tetrazolium}-bis(4-methoxy-6-nitro)benzene sulfonic acid hydrate (XTT) colorimetric assay (Biological Industries, Beit-Haemek, Israel). XTT labeling reagent (1 mg/mL) was mixed with electron-coupling reagent, following the manufacturer’s instructions, and 50 μL of the mixture was added directly to the cells. The plates were further incubated at 37 °C for 4 h. Color was measured spectrophotometrically in a microtiter plate reader at 492 nm and used as a relative measurement of viable cell numbers. After drug treatment, the viable cell number was compared to the solvent and untreated control cell number. This information was used to determine the percent of control growth as (Abtreated/Abcontrol) × 100, where Ab represents the mean absorbance (n = 3). The concentration that killed 50% of cells (IC50) was determined from the linear portion of the curve by calculating the concentration of the agent that reduced the absorbance in treated cells, compared to control cells, by 50%.
(Tetrazolium assays rely on reduction of a dye to a coloured formazan, in cell work by metabolically active cells.)

The test system of a further assay is MDA-MB-231. Details: method as in PMID 23237975. The settings on record: value marked with footnote c; cited from earlier work.
A further assay concerns H1299. Details: method as in PMID 23237975. Conditions: read-out: IC50 against the growth of H1299; cited from earlier work.
A further assay relates to SKBR-3. Set-up: method as in PMID 23237975. The settings on record: read-out: IC50 against the growth of SKBR-3; cited from earlier work.

For the compound `COc1ccc(-c2cc3ccccc3nc2/C=C/C(=O)c2ccccc2)cc1` [Compound 1, (E)-3-[3-(4-methoxyphenyl)quinolin-2-yl]-1-phenylprop-2-en-1-one], the IC50 in the assay with MRC-5 is 0.66 ± 0.06 µM; in the assay with MDA-MB-231, 0.86 ± 0.07 µM; in the assay on H1299 it was 1.41 µM; with SKBR-3 it was 0.7 µM.

The term IC50 denotes the concentration at which inhibition is half-maximal.
